From patent US8895502B2, “β2-glycoprotein I peptide inhibitors” (Kansas State University Research Foundation, priority 2010, dated 2014)
Ends that are not written are not given here.

Legend:
[1] = tested on: Fvb/N-Tg(MMTV-PyVT)634Mul/J mice mammary tumors; assay: Spontaneous breast cancer model, tumor growth; type: in vivo, mouse; details: 40 μM retro-orbital 3 times per week for 7 weeks after palpable tumor
Procedure: Ten […] Fvb/N-Tg(MMTV-PyVT)634Mul/J mice were generously donated by T. A. Nguyen and maintained under 12 h light/dark cycles at Kansas State University, Division of Biology (Manhattan, Kans.). These mice are Her2^+ Estrogen receptor α/β^+, Progesterone receptor^+, p53^+ animal models that spontaneously develop breast cancer. All mice were allowed access to food and water ad libitum and maintained under specific pathogen free conditions. Research was conducted in compliance with the Animal Welfare Act and other federal statutes and regulations relating to animals and experiments involving animals and was approved by the Institutional Animal Care and Use Committee.
Mice were observed 3 times a week until tumors were palpable. Randomly, mice were assigned to receive treatment with N. Saline or peptide 296c-s. Each peptide treated mouse received β2-Glycoprotein 1 Peptide 296c-s (40 μM) by retro-orbital injection three times a week for 7 additional weeks. N. Saline treated mice received the same volume (80 μL) of 0.15M normal saline retro-orbitally three times a week as a control group.
Tumors were measured by hand with calipers three times a week for 7 weeks after the start of injection. After 7 weeks, the mice were briefly anesthetized using isofluorene followed by cervical dislocation euthanization and the tumors were harvested. The tumors were measured volumetrically. […]

[2] = tested on: VEGF; assay: Spontaneous breast cancer model, VEGF RNA expression; type: in vivo, mouse; details: mammary tumors, compared to saline treated animals
Procedure: mRNA was isolated from the tumor samples that were homogenized in Trizol. The concentration of mRNA was evaluated by nanodrop and the purity by bioanalyzer. cDNA was then synthesized using random primers with the Quanta cDNA synthesis kit. RT-PCR was then performed on a 1:100 dilution of cDNA for 18s rRNA. After 3 min denaturing at 95° C., the real-time PCR reaction consisted of 50 cycles (of 10 sec at 95° C., 20 sec at 58° C., and 10 sec at 72° C.), followed by a melt curve increasing at intervals of 0.5° C. from 60° C. to 95° C. RT-PCR was also performed on cDNA samples for CD31 and VEGF which are endothelial markers of angiogenesis. After subtracting 18s Ct values, peptide treated dCt values were normalized to saline treated samples and fold change calculated as ddCt. Primers were obtained from Integrated DNA Technology (Coraville, Iowa) and sequences are in the table below.

[3] = tested on: thioglycollate-elicited macrophages, IL-6; assay: β2-GPI stimulated macrophage IL-6 production; type: cell-based; details: mouse β2-GPI 10 μg/mL, peptide 40 μM, 18 hours
Procedure: C57Bl/6 mice were injected i.p. with 1 mL thioglycollate (4%) 4 days prior to peritoneal lavage. Peritoneal exudate macrophages or the B cell line, LK35.2, were seeded at 2×10^6 cells/mL in 24-well or 96-well plates. After macrophage adherence, both cell types were treated with mouse β2-GPI (10 μg/mL) with or without peptide (40 μM). Additional cells were unstimulated as a negative control or stimulated with 10 μg/mL LPS (E. coli 055B5) as a positive control. Supernatants were collected 18-20 hours after stimulation and analyzed for nitrite by Griess reagent (Hoffman & Fleming, Cell Biochem. Funct. 28:686-694 (2010)) or IL-6 by Milliplex MAP kit (Millipore) following the manufacturer's instructions using a Luminex 200 with xPONENT 3.1 and Analyst software (Millipore).

Substance	percent tumor growth compared to initial measurements [1]	RNA expression of VEGF [2]	β2-GPI induced IL-6 production [3]
H-IHFYSKNKEKKSSYTVEAHSRDGTI-OH [peptide 296Cys-Ser]	significantly decreased	significantly decreased	
H-KKCSYTVEAHCRDGTIEIPSCFKEHS-OH (cysteine pairing not given here) [peptide 305, 10]			attenuated
